Experimental findings from US7338968B2, “Thiadiazoles AS CXC- and CC- chemokine receptor ligands” (Schering Corporation, priority 2003, dated 2008) are described below.

Each structure is given as a SMILES string.

For experiment [1], the target named is T1, CCR7 (Homo sapiens, UniProt P32248).
T1 construct: expressed in transfected cells; host or cells: Ba/F3 cells (membranes prepared in house)
T1 sequence (P32248 25-378): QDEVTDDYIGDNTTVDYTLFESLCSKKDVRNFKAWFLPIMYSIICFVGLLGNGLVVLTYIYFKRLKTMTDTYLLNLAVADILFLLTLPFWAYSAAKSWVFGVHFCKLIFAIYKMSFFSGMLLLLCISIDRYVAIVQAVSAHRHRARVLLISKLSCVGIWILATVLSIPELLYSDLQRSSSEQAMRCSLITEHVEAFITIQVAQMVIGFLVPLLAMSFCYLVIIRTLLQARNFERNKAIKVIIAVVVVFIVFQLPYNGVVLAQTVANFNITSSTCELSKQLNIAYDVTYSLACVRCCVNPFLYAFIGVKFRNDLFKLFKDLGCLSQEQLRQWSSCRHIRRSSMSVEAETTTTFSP
Nature of the experiment: CCR7 [35S]GTPγS exchange assay (SPA, Ba/F3-CCR7 membranes, 2 nM MIP-3). The class given is biochemical. Here is the method: CCR7 Membrane Preparation.
Ba/F3-CCR7 membranes were prepared as previously described (Hipkin et al., J. Biol. Chem., 272, 1997, 13869-76). Cells were pelleted by centrifugation, incubated in homogenization buffer (10 mM Tris-HCl, 5 mM EDTA, 3 mM EGTA, pH 7.6) and 1 μM PMSF for 30 min. on ice. The cells were then lysed with a Dounce homogenizer using stirrer type RZR3 polytron homogenizer (Caframo, Wiarton, Ont.) with 12 strokes at 900 RPM. The intact cells and nuclei were removed by centrifugation at 500×g for 5 min. The cell membranes in the supernatant were then pelleted by centrifugation at 100,000×g for 30 min. The membranes were then resuspended in glygly buffer (20 mM glycylglycine, 1 mM MgCl2, 250 mM sucrose, pH 7.2), aliquoted, quick frozen and stored at −80° C.
CCR7 [^35S]GTPγS Exchange Assay.
The exchange of guanosine 5′-[γ-^35S]triphospate ([^35S]GTPγS, triethylammonium salt; specific activity=1250 Ci/mmol; NEN Boston, Mass.) was measured using a scintillation proximity assay (SPA) as previously described (Cox, et. al., Mol. Pharmacol., 59, 2001, 707-15). […] Membrane-bound [^35S]GTPγS was measured using a 1450 Microbeta Trilux counter (Wallac, Gaithersburg, Md.).

Experiment [2] deals with T2, hCXCR2 (Homo sapiens, UniProt P25025).
T2 construct: purchased Biosignal / Biosignal Packard; host or cells: CHO cells (membranes)
T2 sequence (P25025 1-360): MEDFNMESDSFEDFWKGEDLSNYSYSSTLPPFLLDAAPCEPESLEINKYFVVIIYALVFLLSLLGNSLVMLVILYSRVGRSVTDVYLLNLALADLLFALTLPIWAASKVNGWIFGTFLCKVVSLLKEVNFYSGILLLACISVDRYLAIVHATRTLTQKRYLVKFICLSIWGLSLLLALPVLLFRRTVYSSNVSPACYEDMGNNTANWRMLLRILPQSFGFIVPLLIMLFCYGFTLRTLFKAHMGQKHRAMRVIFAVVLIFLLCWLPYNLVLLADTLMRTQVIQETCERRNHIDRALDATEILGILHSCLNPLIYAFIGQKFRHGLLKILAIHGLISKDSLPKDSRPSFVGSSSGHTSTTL
The experiment in a line: CXCR2 SPA assay ([125I]-IL-8 binding, hCXCR2-CHO membranes; incl. alternative 50 μl and 200 μl protocols). The procedure:
For each well of a 96 well plate, a reaction mixture of 4 μg hCXCR2-CHO overexpressing membranes (Biosignal) and 200 μg/well WGA-SPA beads (Amersham) in 100 μl was prepared in CXCR2 assay buffer (25 mM HEPES, pH 7.4, 2 mM CaCl2, 1 mM MgCl2). A 0.4 nM stock of ligand, [^125I]-IL-8 (NEN), was prepared in the CXCR2 assay buffer. 20× stock solutions of test compounds were prepared in DMSO (Sigma). A 6× stock solution of GRO-α (R&D) was prepared in CXCR2 assay buffer. […]
For each 50 μl reaction, a working stock of 0.031 μg/μl hCXCR2-CHO over-expressing membranes with a specific activity of 0.4 pmol/mg (Biosignal Packard) and 2.5 μg/μl WGA-SPA beads (Perkin Elmer Life Sciences) was prepared in CXCR2 assay buffer (25 mM HEPES, pH 7.4, 2.0 mM CaCl2, 1 mM MgCl2) (Sigma). […] The assay plates were incubated for 2 hours before cpm/well were determined in a Microbeta Trilux counter (Perkin Elmer Life Sciences). IC50 values were quantified using nonlinear regression analysis in GraphPad Prism. […]
For each 200 μl reaction, a working stock of 0.02 μg/μl hCXCR2—CHO over-expressing membranes with a specific activity of 0.6 pmol/mg (Biosignal Packard) and 2 μg/μl WGA-SPA beads (Perkin Elmer Life Sciences) was prepared in CXCR2 assay buffer (25 mM HEPES, pH 7.4, 2.0 mM CaCl2, 1 mM MgCl2) (Sigma). […] IC50 values were quantified using nonlinear regression analysis in GraphPad Prism.

In experiment [3] the target is T3, hCXCR1 (Homo sapiens, UniProt P25024).
T3 construct: purchased Biosignal / Biosignal Packard; alternatively Euroscreen; host or cells: CHO cells (membranes)
T3 sequence (P25024 1-350): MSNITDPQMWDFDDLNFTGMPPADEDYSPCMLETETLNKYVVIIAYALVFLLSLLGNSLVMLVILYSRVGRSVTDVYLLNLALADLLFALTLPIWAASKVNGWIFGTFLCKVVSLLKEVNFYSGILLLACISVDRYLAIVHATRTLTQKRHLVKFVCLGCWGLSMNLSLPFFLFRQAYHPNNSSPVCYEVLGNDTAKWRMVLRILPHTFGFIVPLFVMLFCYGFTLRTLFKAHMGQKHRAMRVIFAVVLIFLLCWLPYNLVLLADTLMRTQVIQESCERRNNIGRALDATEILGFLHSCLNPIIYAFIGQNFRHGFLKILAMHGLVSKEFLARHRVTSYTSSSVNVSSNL
Nature of the experiment: CXCR1 SPA assay ([125I]-IL-8 binding, hCXCR1-CHO membranes; incl. alternative Biosignal Packard and Euroscreen protocols).
Description: For each well of a 96 well plate, a reaction mixture of 10 μg hCXCR1-CHO overexpressing membranes (Biosignal) and 200 μg/well WGA-SPA beads (Amersham) in 100 μl was prepared in CXCR1 assay buffer (25 mM HEPES, pH 7.8, 2 mM CaCl2, 1 mM MgCl2, 125 mM NaCl, 0.1% BSA) (Sigma). A 0.4 nM stock of ligand, [125I]-IL-8 (NEN) was prepared in the CXCR1 assay buffer. 20× stock solutions of test compounds were prepared in DMSO (Sigma). […] The above solutions were added to a 96-well assay plate (PerkinElmer) as follows: 10 μl test compound or DMSO, 40 μl CXCR1 assay buffer or IL-8 stock, 100 μl of reaction mixture, 50 μl of ligand stock (Final [Ligand]=0.1 nM).
For each 50 μl reaction, a working stock of 0.25 μg/μl hCXCR1-CHO over-expressing membranes with a specific activity of 0.05 pmol/mg (Biosignal Packard) and 25 μg/μl WGA-SPA beads (Perkin Elmer Life Sciences) was prepared in CXCR1 assay buffer (25 mM HEPES, pH 7.8, 0.1 mM CaCl2, 1 mM MgCl2, 100 mM NaCl) (Sigma). This mixture was incubated on ice for 30 minutes and then centrifuged at 2500 rpm for 5 minutes. The beads and membranes were resuspended in CXCR1 assay buffer to the same concentrations as in the original mixture. […] The assay plates were incubated for 4 hours before cpm/well were determined in a Microbeta Trilux counter (Perkin Elmer Life Sciences). IC50 values were quantified using nonlinear regression analysis in GraphPad Prism. […]

The EC50 is the midpoint of the concentration-response curve. Read a low EC50 as an effect from little substance. As for `Cc1ccc([C@H](Nc2nsnc2Nc2cccc(C(=O)N(C)C)c2O)C(C)C)o1` [Example 3], in experiment [1], the EC50 was found to be 880 nM.

The term Ki denotes the equilibrium dissociation constant of an inhibitor or competing ligand from its target. Lower therefore signals higher affinity. Regarding `CC[C@@H](Nc1nsnc1Nc1cccc(C(=O)N(C)C)c1O)c1cc(C(C)C)co1` [Example 1], the Ki in experiment [2] was 28 nM; in experiment [3], 808 nM.

On to `Cc1ccc([C@H](Nc2nsnc2Nc2cccc(C(=O)N(C)C)c2O)C(C)(C)C)o1` [Example 6], for which the response in experiment [1] was half-maximal at 22 nM (EC50). The Ki in experiment [2] turned out to be 14 nM.
